From ChEMBL document CHEMBL2146467, “Generation and exploration of new classes of antitubercular agents: The optimization of oxazolines, oxazoles, thiazolines, thiazoles to imidazo[1,2-a]pyridines and isomeric 5,6-fused scaffolds” (Bioorg Med Chem, 2012)
Converted amounts (≈) assume the structure as drawn.

Test system: Mycobacterium tuberculosis
Assay: Antimycobacterial activity against Mycobacterium bovis BCG
Format: functional
Conditions: variant bovis BCG

Cc1ccn2c(C(=O)NCc3ccccc3)c(C)nc2c1
MIC: 0.3 µM (≈ 0.0838 µg/mL)
